# Data taken from patent publication US20250388605A1, “HETEROBIFUNCTIONAL COMPOUNDS AND METHODS OF TREATING DISEASE” (Halda Therapeutics OpCo, Inc., priority 2022, published 2025).
# Key:
# VCaP cells = test: Cellular growth inhibition assay for VCaP cells, CellTiter-Glo; type: cell-based, human; settings: 72 hours
# Method in brief: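 GI50 values come from four-parameter curve fits of luminescence data normalized to a zero baseline. Compound, in medium with 0.5% DMSO, was added one day after plating and left for 72 h before CellTiter-Glo 2.0 addition.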
# [1] = system: T-Rex 293 cell line SC3 cells lacking increased expression of androgen receptor protein; test: Cellular growth inhibition, T-Rex 293 SC3 cells without doxycycline (no increased androgen receptor expression), CellTiter-Glo; type: cell-based; settings: T-Rex 293 SC3 cells not exposed to doxycycline (no increased androgen receptor expression), 72 hours
# Method in brief: (§1)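 Doxycycline (10 ng/mL) was either included or omitted to toggle wild-type androgen receptor expression in SC3 cells, a T-Rex 293 clone, grown in stripped-serum, phenol red-free medium. After 72 hours with compound, viable cells were quantified by CellTiter-Glo 2.0.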
# [2] = system: T-Rex 293 cell line SC cells lacking increased expression of progesterone receptor isoform B protein; test: Cellular growth inhibition assay, T-Rex 293 SC cells not exposed to doxycycline (no increased progesterone receptor isoform B expression), CellTiter-Glo; type: cell-based; settings: T-Rex 293 SC cells without doxycycline (no increased PR isoform B), 72 hours
# Description: (§2) The SC cells were seeded on poly-D-lysine coated, black clear-bottom 384-well plates at 2500/well, in 25 μL Phenol Red Free Dulbecco's Modified Eagle Medium (DMEM) supplemented with 10% w/w charcoal-dextran treated fetal bovine serum (FBS) and 1% w/w pen-strep, with or without 10 ng/mL doxycycline. Pen-Strep is a commercially available mixture of penicillin G and streptomycin, which is used in mammalian cell culture media to prevent bacterial contamination. Phenol Red Free Dulbecco's Modified Eagle Medium (DMEM) supplemented with 10% w/w charcoal-dextran treated fetal bovine serum (FBS) and 1% w/w pen-strep, with or without 10 ng/mL doxycycline is herein referred to as Treatment Medium. Following seeding of cells in the plates, the plates were spun at 300×g for 30 seconds, then equilibrated to room temperature for 30 minutes, and then deposited in a humidified tissue culture incubator maintained at 37° C. with 5% CO2.
# (§3) At 24 hours after seeding of the cells, dilutions of test compound were prepared in DMSO and dissolved in Treatment Medium, to achieve a final DMSO concentration of 0.5% w/w, thereby providing the Test Compound Solution. A 25 μL aliquot of the Test Compound Solution was added to cells in the well plates. An equal volume of a solution containing DMSO and Treatment Medium was used as a negative control. Following treatment of cells with Test Compound Solution or said equal volume of a solution containing DMSO and Treatment Medium, the plates were spun at 300×g for 30 seconds, and then left in an incubator for 72 hours.
# (§4) At the end of the treatment duration, cell viability was quantified with CellTiter-Glo 2.0 reagent (Promega Cat #G9243). For this purpose, plates were equilibrated to room temperature for 30 minutes, and then 25 μL of CellTiter-Glo 2.0 reagent was added to cells in the plate wells. Plates were then agitated on a shaker for two minutes at 500 rpm and subsequently incubated at room temperature for 10 minutes. Following incubation, the plates were spun at 3000×g for 30 seconds, then sealed with an optical adhesive cover, and luminescence readings were measured with an EnVision Plate Reader (Perkin Elmer).
# (§5) Data was normalized using zero luminescence for baseline. A four-parameter non-linear regression curve fit was applied to dose-response data in GraphPad Prism data analysis software to determine the half-maximal growth inhibitory concentration (GI50) for each test compound.
# [3] = system: T-Rex 293 cell line SC3 cells having increased expression of androgen receptor protein due to exposure to doxycycline; test: Cellular growth inhibition, T-Rex 293 SC3 cells with doxycycline (increased androgen receptor expression), CellTiter-Glo; type: cell-based; settings: T-Rex 293 SC3 cells with 10 ng/mL doxycycline (increased androgen receptor expression), 72 hours, CellTiter-Glo 2.0
# Method in brief: as §1
# [4] = system: T-Rex 293 cell line SC cells having increased expression of progesterone receptor isoform B protein; test: Cellular growth inhibition assay, T-Rex 293 SC cells exposed to doxycycline (increased progesterone receptor isoform B expression), CellTiter-Glo; type: cell-based; settings: T-Rex 293 SC cells with 10 ng/mL doxycycline (increased PR isoform B), 72 hours
# Description: as §2, §3, §4, §5
# BRD4-BD2 = biological target: T1, BRD4-BD2 (Homo sapiens, UniProt O60885); test: Binding affinity to BRD4-BD2 (bromoKdELECT assay); settings: 11-point 3-fold dilution series
# T1 construct: made in house; host or cells: T7 phage grown in an E. coli host derived from the BL21 strain
# Description: (§6) Compounds were tested using a bromoKdELECT assay. T7 phage strains displaying bromodomains were grown in parallel in 24-well blocks in an E. coli host derived from the BL21 strain. E. coli were grown to log-phase and infected with T7 phage from a frozen stock (multiplicity of infection=0.4) and incubated with shaking at 32° C. until lysis (90-150 minutes). The lysates were centrifuged (5,000×g) and filtered ([…]) to remove cell debris. Streptavidin-coated magnetic beads were treated with biotinylated small molecule or acetylated peptide ligands for 30 minutes at room temperature to generate affinity resins for bromodomain assays. The liganded beads were blocked with excess biotin and washed with blocking buffer (SeaBlock (Pierce), 1% BSA, 0.05% Tween 20, 1 mM DTT) to remove unbound ligand and to reduce nonspecific phage binding. Binding reactions were assembled by combining bromodomains, liganded affinity beads, and test compounds in 1× binding buffer (17% SeaBlock, 0.33×PBS, 0.04% Tween 20, 0.02% BSA, 0.004% Sodium azide, 7.4 mM DTT). Test compounds were prepared as 1000× stocks in 100% DMSO. Kds were determined using an 11-point 3-fold compound dilution series with one DMSO control point. All compounds for Kd measurements are distributed by acoustic transfer (non-contact dispensing) in 100% DMSO. The compounds were then diluted directly into the assays such that the final concentration of DMSO was 0.09%. All reactions performed in polypropylene 384-well plates. Each was a final volume of 0.02 ml. The assay plates were incubated at room temperature with shaking for 1 hour and the affinity beads were washed with wash buffer (1×PBS, 0.05% Tween 20). The beads were then resuspended in elution buffer (1×PBS, 0.05% Tween 20, 2 μM non-biotinylated affinity ligand) and incubated at room temperature with shaking for 30 minutes. The bromodomain concentration in the eluates was measured by qPCR.
# BRD4-BD1 = biological target: T2, BRD4-BD1 (Homo sapiens, UniProt O60885); test: Binding affinity to BRD4-BD1 (bromoKdELECT assay); settings: 11-point 3-fold dilution series
# T2 construct: made in house; host or cells: T7 phage grown in an E. coli host derived from the BL21 strain
# Description: as §6, with “[…]” for “μM”
SMILES,GI50 (VCaP cells; Homo sapiens) [nM],Kd (BRD4-BD2) [nM],Kd (BRD4-BD1) [nM],GI50 (VCaP cells) [nM],GI50 [1] [nM],GI50 [2] [nM],GI50 [3] [nM],GI50 [4] [nM]
Cn1cc(-c2cc(C(C)(C)O)ccc2Oc2ccc(CC3CC4(CCN(c5ncc(C(=O)N[C@H]6C(C)(C)[C@H](Oc7ccc(C#N)c(Cl)c7)C6(C)C)cn5)CC4)C3)cc2)c2cc[nH]c2c1=O [Compound I-279],< 500,,,,> 3000,> 3000,< 500,< 500
CN(c1ccc(Oc2cccc(OCCOC3CCN(c4ncc(C(=O)N[C@H]5C(C)(C)[C@H](Oc6ccc(C#N)c(Cl)c6)C5(C)C)cn4)CC3)c2)c(-c2cn(C)c(=O)c3[nH]ccc23)c1)S(=O)(=O)C1CC1 [Compound I-49],< 500,500 to 2500,> 2500,,> 3000,,< 500,
"CCS(=O)(=O)Nc1ccc(OCC(OCCOC2CCN(c3ncc(C(=O)N[C@H]4C(C)(C)[C@H](Oc5ccc(C#N)c(Cl)c5)C4(C)C)cn3)CC2)C2CC2)c(-c2cn(C)c(=O)c3[nH]ccc23)c1 (stereo partly drawn) [Compound I-68, N-((1r, 3r)-3-(3-chloro-4-cyanophenoxy)-2,2,4,4-tetramethylcyclobutyl)-2-(4-(2-(1-cyclopropyl-2-(4-(ethylsulfonamido)-2-(6-methyl-7-oxo-6,7-dihydro-1H-pyrrolo[2,3-c]pyridin-4-yl)phenoxy)ethoxy)ethoxy)piperidin-1-yl)pyrimidine-5-carboxamide]",< 500,50 to 500,50 to 500,,> 3000,,< 500,
CN(c1ccc(Oc2cccc(OCCOC3CCN(c4ncc(C(=O)N[C@H]5C(C)(C)[C@H](Oc6ccc(C#N)c(Cl)c6)C5(C)C)cn4)CC3)c2)c(-c2cn(C)c(=O)c3[nH]ccc23)c1)S(C)(=O)=O [Compound I-51],< 500,500 to 2500,> 2500,,< 500,,< 500,
CCS(=O)(=O)c1ccc(Oc2cccc(OCCCC3CCN(c4ncc(C(=O)N[C@H]5C(C)(C)[C@H](Oc6ccc(C#N)c(Cl)c6)C5(C)C)cn4)CC3)c2F)c(-c2cn(C)c(=O)c3[nH]ccc23)c1 [Compound I-140],1500 to 3000,> 2500,> 2500,,< 500,,< 500,
"CCS(=O)(=O)c1ccc(OC(COCCOC2CCN(c3ncc(C(=O)NC4C(C)(C)C(Oc5ccc(C#N)c(Cl)c5)C4(C)C)cn3)CC2)C2CC2)c(-c2cn(C)c(=O)c3[nH]ccc23)c1 (stereo not drawn) [Compound I-186, N-[3-(3-chloro-4-cyano-phenoxy)-2,2,4,4-tetramethyl-cyclobutyl]-2-[4-[2-[2-cyclopropyl-2-[4-ethylsulfonyl-2-(6-methyl-7-oxo-1H-pyrrolo[2,3-c]pyridin-4-yl)phenoxy]ethoxy]ethoxy]-1-piperidyl]pyrimidine-5-carboxamide]",< 500,50 to 500,50 to 500,,< 500,,< 500,
CCS(=O)(=O)Nc1ccc(OCC(OCCCOC2CCN(c3ncc(C(=O)N[C@H]4C(C)(C)[C@H](Oc5ccc(C#N)c(Cl)c5)C4(C)C)cn3)CC2)C2CC2)c(-c2cn(C)c(=O)c3[nH]ccc23)c1 (stereo partly drawn) [Compound I-187],,500 to 2500,50 to 500,< 500,> 3000,,< 500,
CN(c1ccc(Oc2cccc(OCCN3CCN(c4ncc(C(=O)N[C@H]5C(C)(C)[C@H](Oc6ccc(C#N)c(Cl)c6)C5(C)C)cn4)CC3)c2)c(-c2cn(C)c(=O)c3[nH]ccc23)c1)S(=O)(=O)C1CC1 [Compound I-95],< 500,50 to 500,500 to 2500,,< 500,,< 500,

# The next lines start with results.
GI50 (VCaP cells; Homo sapiens) [nM],Kd (BRD4-BD2) [nM],Kd (BRD4-BD1) [nM],GI50 (VCaP cells) [nM],SMILES,GI50 [1] [nM],GI50 [2] [nM],GI50 [3] [nM],GI50 [4] [nM]
,< 50,50 to 500,< 500,CCS(=O)(=O)Cc1ccc(Oc2cccc(CCCN3CCN(c4ncc(C(=O)N[C@H]5C(C)(C)[C@H](Oc6ccc(C#N)c(Cl)c6)C5(C)C)cn4)CC3)c2F)c(-c2cn(C)c(=O)c3[nH]ccc23)c1 [Compound I-144],< 500,,< 500,
< 500,< 50,> 2500,,CCS(=O)(=O)Nc1ccc(Oc2cccc(OCCOC3CCN(c4ncc(C(=O)N[C@H]5C(C)(C)[C@H](Oc6ccc(C#N)c(Cl)c6)C5(C)C)cn4)CC3)c2F)c(-c2cn(C)c(=O)c3[nH]ccc23)c1 [Compound I-64],< 500,,< 500,
,< 50,50 to 500,< 500,CCS(=O)(=O)Cc1ccc(Oc2cccc(CCCN3CCN(c4ncc(C(=O)N[C@H]5C(C)(C)[C@H](Oc6ccc(C#N)c(Cl)c6)C5(C)C)cn4)CC3)c2)c(-c2cn(C)c(=O)c3[nH]ccc23)c1 [Compound I-133],< 500,,< 500,
< 500,< 50,500 to 2500,,Cn1cc(-c2cc(NS(=O)(=O)CC(F)(F)F)ccc2Oc2cccc(OCCOC3CCN(c4ncc(C(=O)N[C@H]5C(C)(C)[C@H](Oc6ccc(C#N)c(Cl)c6)C5(C)C)cn4)CC3)c2F)c2cc[nH]c2c1=O [Compound I-153],< 500,,< 500,
